Laboratory results as given in patent US8653298B2, “Biphenyl acetate, preparation and uses thereof” (Shijiazhuang Yiling Pharmaceutical Co., Ltd., priority 2006, dated 2014).
“Also recorded” adds a separate entry of the source. Counter-ions that a name gives are not always drawn.

Tests used:
NIH mice [1] = assay: test of stomach channel, oral administration; conditions: 212 mg/kg oral, fasted 24 hours, stomach dissected after 48 hours
Description: NIH mice are divided into two groups randomly. […] Dissect stomach after 48 hours. Use 10% methylene oxide. Cut the stomach along the curve of stomach, and calculate the percentage of an ulcer canker.

female Kunming mouse = assay: analgesia, mice heating plate method; assay type: in vivo; conditions: for pain record on hot plate (55±0.5° C.): 240 mg/kg
Description: Pick the female Kunming mouse, each having the weight between 20 to 22 grams. At first, test their sensitive towards pain. Put the mouse on the hot plate with the temperature of 55±0.5° C., and calculate how much pain does the mouse has by determining how many times they lick their back leg. Eliminate the mice seem to like to jump and the mice has no respond for 30 seconds. Pick a total of 60 mice having sensitive to pain and divide them into 5 groups randomly. […] The dosage of biphenyl acetic ammonia butantriol salt is divided into low, medium, and high dosage, correspondingly to 4, 12, 36 mg/kg, and normal dosage ⅓, 1, 3 respectively. And there is a positive contrast group. […] On the other hand, the saline is injected into the vein in the contrast group. Use epilation to remove the hair of the back leg of the mouse. Record the painful of every mouse before giving drug, and record the painful after giving drug 1 hour. After the mouse licks its foot, remove the hot plate immediately. Do the same record again at the second and third hour after giving drug. Do the t inspect, and judge its effects on easing pain.

solubility testing = assay type: physicochemical; conditions: for Conclusion (solubility): 25±2° C.
Description: According to Chinese medicine book in 2005 edition, the preparation of biphenyl acetic ammonia butantriol salt is made by different solvent. […] At first, mill the biphenyl acetic ammonia butantriol salt into flour and weight it, and add solvent into the biphenyl acetic ammonia butantriol salt. Second, at 25±2° C., wave the mixer solution every 5 minutes for 30 seconds, and inspect the dissolve situation. Repeat three times and the result is illustrated in Table 1.

[2] = test system: 2% red blood cell's suspending liquid; assay: hemolytic testing outside the body (visual); assay type: cell-based, rabbit; conditions: low concentration 0.63 mg/ml
Description: Take 0.5 ml the biphenyl acetic ammonia butantriol salt solution and dilute it with 0.9 % NaCl solution (0.9 g/100 ml) to 6.25 ml.
Take 2 ml the biphenyl acetic ammonia butantriol salt solution and dilute it with 0.9 % NACL (0.9 g/100 ml) solution to 6.0 ml.
Take few milliliters of rabbit blood into a triangular flask and shake it for 10 minutes. Remove the fiber egg white, and get non-fiber blood. Separate the blood solution into few centrifuge tubes. Add ten times of 0.9% NaCl solution, well mixing, and centrifuge (1500 turns/minutes, 15 minutes) to remove the supernatant. Use 0.9% NaCl solution to wash the precipitation red blood two or three times until the supernatant is not red anymore. Use the red blood to mix the 0.9% NaCl solution to make 2% suspending liquid for test use.
Take the same size of opening of 7 clean test tubes and number them. Add the 0.9% NaCl solution, the injection water, medicine, and the 2% suspending liquid followed by Table 9. After well mixing, put them in the temperature chamber at 37° C. Inspect them every 15 minutes. After 1 hour, inspect them every one hour for 3 hours.
If testing solution presents clearly red, no cellular residual under the tube, and few cellular residual, it can determines that haemolysis happens. If red cells all sink, and supernatant fluid presents no color, it can present that haemolysis doesn't happen. […]

in vivo = conditions: both, NIH, mouse, in vivo
Text: (§1) A total amount of 40 NIH mice, 19-21 gram, (half of the mice are male and half of the mice are female), it is divided into two groups: medicine group and the contrast group. […] The contrast is given by the […] liquid. Investigation and record the poison effect on the mice and the amount of mice death.

NIH mice [3] = assay: in vivo
Text: as §1

[4] = stable test of the injection (influence, acceleration, long term); assay type: physicochemical
Text: The purpose is to investigate the regular change of this product which has the influence of temperature, humidity, and light intensity, and offer producing, packaging, and transporting condition for this medicine. At the same time, the effective date is established by passing this testing. According to the Chinese pharmacopia appendix XI X C, second edition, 2005(the rule of medicine stability testing direction) and “The important stability item-list of bulk drug and pharmaceutical preparation” which is in “The researching directive rule of chemical medicine and therapeutic biological products” determines the important item-list, which includes gender character, PH value, relative materials, asepsis, thermal source, assay, and so on. The testing result is below: […] In other words, the quality of the product is very stable. […] In other words, the quality of the product is very stable. […] In other words, the quality of the product is very stable.

NIH mice [5] = assay: twist reaction caused by glacial acetic acid; conditions: 3-48 mg/kg
Description: After testing, the 110 NIH mice are divided into eleven groups randomly, which means each group has 10 mice, and each of the mice has a weight between 15 and 17 grams. The numbers and dosage of the biphenyl acetic ammonia butantriol slat are 1, 2, 3, 4, 5 and 3, 6, 12, 24, 48 mg/kg respectively. The numbers and dosage of flurbiprofen axetil are 1, 2, 3, 4, 5, and 3, 6, 12, 24, 48 respectively also. The medicine and weight ratio is 0.1 ml medicine/10 g weight. Meanwhile, we give the same quantity of saline solution to the contrast group. After 30 minutes, the mixture solution is injected into the vein according to its weight ratio 0.1 ml liquid/10 gram weight for HAc painful.

Kunming mouse = assay: swelling of the mouse ear caused by dimethyl benzene; conditions: 3-48 mg/kg
Description: Total numbers of 110 Kunming mice are used, male, 15-17 g, medical inspection for 3 days.
After testing, the mice are divided into eleven groups randomly and each group contains 10 mice. The numbers and dosage of the biphenyl acetic ammonia butantriol slat are 1, 2, 3, 4, 5 and 3, 6, 12, 24, 48, respectively. The numbers and dosage of flurbiprofen axetil are 1, 2, 3, 4, 5, and 3, 6, 12, 24, 48 respectively. Use the dimethybenzene to make the mouse ear swelling, and use the mouse left ear as the contrast group. After 30 minutes, the mixing liquid is injected into the vein according to its weight ratio 0.1 ml liquid/10 gram weight. Use a punch, having the diameter of 8 mm, to punch the same hole in two different ears. Weight it by very high quality scale. Finally, the swelling ratio is: the weight of right ear plus the weight of left ear.

[6] = solvent Acetone, 8.9 g in 150 ml
[7] = solvent Acetonitrile, 9.1 g in 150 ml
[8] = solvent Alcohol, 14.3 g in 10 ml
[9] = solvent Formamide, 0.2137 g in 6 ml
[10] = solvent Methanol, 0.1135 g in 3 ml
[11] = both, NIH, mouse, in vivo, 14 days

CC(=O)O.c1ccc(-c2ccccc2)cc1 [Biphenyl acetate]
Number of ulcer animals/Sum of total animals (NIH mice [1]): 13/15

CC(=O)Oc1ccccc1C(=O)O [Lysine Acetyl-salicylate]
pain record on hot plate (55±0.5° C.) (female Kunming mouse; 1 hour): 31.08 ± 4.26 | pain record on hot plate (55±0.5° C.) (female Kunming mouse; 2 hours): 30.35 ± 3.29 | pain record on hot plate (55±0.5° C.) (female Kunming mouse; 3 hours): 28.16 ± 2.97

O=C(O)Cc1ccc(-c2ccccc2)cc1 [biphenyl acetic ammonia butantriol salt]
The dissolving condition (solubility testing; [6]): Completely | Conclusion (solubility) (solubility testing; [6]): Undissolvable | The dissolving condition (solubility testing; [7]): Completely | Conclusion (solubility) (solubility testing; [7]): Undissolvable | The dissolving condition (solubility testing; [8]): Completely | Conclusion (solubility) (solubility testing; [8]): just a few dissolve; also recorded: Slightly | The dissolving condition (solubility testing; [9]): Completely | Conclusion (solubility) (solubility testing; [9]): Dissolved | The dissolving condition (solubility testing; [10]): Completely | Conclusion (solubility) (solubility testing; [10]): Dissolved | The dissolving condition (solubility testing; solvent Water, 14.1 g in 10 ml): Completely | Conclusion (solubility) (solubility testing; solvent Water, 14.1 g in 10 ml): just a few dissolve; also recorded: Slightly | time which mouse is standing on the hot plate compared to the contrast group (female Kunming mouse; first, second and third hour after giving drugs): significantly extends | blood absorbing reaction within 3 hours [2]: no blood absorbing reaction | LD50 at 14 days (in vivo; LD50): > 940 mg/kg | LD50 at 14 days (in vivo; LD50 of the salt stated as biphenyl phenylacetic acid): 589 mg/kg | mouse death (NIH mice [3]; 940 mg/kg total for one day, 14 days after injection): no mouse went death | maximum enduring quantity (NIH mice [3]; [11]): over 940 mg/kg | tolerance value (NIH mice [3]; [11]): 940 mg/kg | poison effect on the mice after injection (NIH mice [3]; mouse, in vivo): barely to move | long term test: change of the product ([4]; 25° C., relative humidity 25%, 3 months): no significantly change | acceleration test: change of the product ([4]; 40±2° C., relative humidity 75±5%, 3 months): no significantly change | influence test: change of the product ([4]; 60° C., relative humidity 92.5±5%, light intensity 4500±500 lx, 10 days): no significantly change | effect towards the mouse twisted caused by glacial acetic acid compared with flurbiprofen axetil injection (NIH mice [5]): no significantly difference | effect towards the swelling ear caused by dimethybenzene compared with flurbiprofen axetil (Kunming mouse): no significantly difference
